Data on 4 molecules can be found in article PMC6804044, “Design, Synthesis and Biological Evaluation of Pentacyclic Triterpene Derivatives: Optimization of Anti-ABL Kinase Activity” (Molecules, 2019).

“Also recorded” adds a separate entry of the source. Where two headings read alike, the source gives them in different places. Some results are limits rather than exact numbers.

One series relates to MCF7 human breast cancer. The series is described as follows: MTT cell viability assay, MCF7. In kind it is cell-based. Particulars: 24 h exposure. Here is the method: (§1) A549 human lung carcinoma and HeLa human cervical carcinoma cell lines were cultured in Dulbecco’s Modified Eagle Medium (DMEM). MCF7 human breast cancer and leukemic (K562, HL-60, MT-2 and Jurkat) cells, and PBMC (Precision Bioservices, Frederic, MD, USA) were cultured in RPMI 1640. All media were purchased from FUJIFILM Wako (Osaka, Japan) and supplemented with 10% fetal bovine serum (FBS) (Sigma-Aldrich, St. Louis, MO, USA) and 89 μg/mL streptomycin (Meiji Seika Pharma, Tokyo, Japan) at 37 °C in a humid atmosphere and 5% CO2. In experiments, all cancer cell lines and PBMC were cultured in 24-well and 96-well plates (Iwaki brand Asahi Glass, Chiba, Japan) at 2 × 10^4 cells/mL and 1 × 10^6 cells/mL concentrations, respectively for 24 h.
(§2) The cells were exposed to various concentrations (1–100 μM) of the compounds for 24 h at 37 °C. The cells were then stained with MTT solution and incubated for additional 4 h. At the end of this period, supernatants were removed and 100 μL DMSO was added to each well to solubilize the formazan crystals. The absorbance of the solution was determined on the Infinitive M1000 (Tecan, Mannedorf, Switzerland) plate reader at a wavelength of 550 nm with background subtraction at 630 nm.

The test system of a further series is K562 cells. The series is described as follows: Cell death detection (Hoechst 33342/annexin V/ethidium homodimer III staining). In kind it is cell-based, human. The conditions noted are these: K562, IC50 concentration, 8 h. The method, then:
The cells were then briefly washed twice with 1 × binding buffer. A staining solution containing 50 μL of 1 × binding buffer and 5 μL of FITC-Annexin V solution, 5 μL of ethidium homodimer III solution, or 5 μL of Hoechst 33342 solution was added, and incubated for 15 min at room temperature in the dark. Then, the cells were washed with 1 × binding buffer, and analyzed by the all-in-one fluorescence microscope Biorevo Fluorescence BZ-9000 (Keyence, Osaka, Japan). The number of healthy cells (Hoechst 33342), apoptotic cells (Annexin V), late apoptotic or necrotic cells (Annexin V and Ethidium homodimer III) and necrotic cells (Ethidium homodimer III) were counted as previously described.

A further series has as its system MT-2. Put plainly: MTT cell viability assay, MT-2. Particulars: Homo sapiens, MT2, 24 h exposure. In kind it is cell-based. The method, then:
as §1, §2

Another series deals with Jurkat. The series is described as follows: MTT cell viability assay, Jurkat. In kind it is cell-based. The conditions noted are these: Homo sapiens, 24 h exposure. The method, then:
as §1, §2

Series [1] deals with ERK1/2 and phosphorylated ERK1/2 in K562 cells. The series is described as follows: Immunoblot analysis of ERK signaling in K562. In kind it is cell-based, human. Particulars: K562, 10 μM, 6 h. Here is the method:
After 6 h of treatment at 37 °C, the cells were lysed in PBS-Laemmli sample buffer and then, immunoblot analysis was conducted using phospho-specific-p44/42 MAPK (Erk1/2) (Thr202/Tyr204) (D13.14.4E) XP Rabbit mAb (1:1000) (Cell Signaling Technology, Danvers, MA, USA) or anti-β-actin clone AC-15 (Sigma-Aldrich, St. Louis, MO, USA). For immunoreactivity detection, the chemiluminescence method was performed as previously described. The band intensity was measured using the ImageJ software (NIH, Bethesda, MD, USA).

Series [2] deals with HeLa human cervical carcinoma. The series is described as follows: MTT cell viability assay, HeLa. In kind it is cell-based. Particulars: 24 h exposure. Here is the method:
as §1, §2

Series [3] deals with T1, ABL1 kinase (Homo sapiens, UniProt P00519).
T1 construct: purchased Promega, Madison, WI, USA
Put plainly: ABL1 kinase inhibition (ADP-Glo Kinase Assay). In kind it is biochemical. The conditions noted are these: for IC50: ADP-Glo, 1 h incubation, room temperature. Here is the method:
The ABL1 kinase profiling assay protocol was applied according to the manufacturer`s instructions (Promega, Madison, WI, USA) with the modification proposed in [36]. In this system, the ABL1 kinase and its substrate were diluted with 95 µL 2.5x Kinase Buffer and 15 µL of 100 µM ATP solutions, respectively. Then, the reaction of ABL1 kinase was performed using 2 µL of the compound solution at varying concentrations (0.1–30 µM), 4 µL of kinase working stock, and 4 µL of ATP/substrate working stock in the 384-well plate. After 1 h of incubation at room temperature, the activity of the ABL1 kinase was detected using the ADP-Glo Kinase Assay (Promega, Madison, WI, USA) and the inhibitory kinase activity of compounds in dose-response mode was measured by the Infinitive M1000 luminescence plate reader (Tecan, Groding, Austria).

The test system of series [4] is peripheral blood mononuclear cells (PBMC). The series is described as follows: MTT cell viability assay, PBMC. In kind it is cell-based. The conditions noted are these: PBMC, 24 h exposure. Here is the method: as §1, §2
Another series relates to CML cell line K562. The series is described as follows: MTT cell viability assay, K562. The conditions noted are these: for IC50: MTT, 24 h exposure, read-out: IC50 Values, K562 Cell Line; for SI (selectivity index): ratio of the IC50 between PBMC and K562 cells. Type of series: cell-based, human. The method, then: A549 human lung carcinoma and HeLa human cervical carcinoma cell lines were cultured in Dulbecco’s Modified Eagle Medium (DMEM). […] In experiments, all cancer cell lines and PBMC were cultured in 24-well and 96-well plates (Iwaki brand Asahi Glass, Chiba, Japan) at 2 × 10^4 cells/mL and 1 × 10^6 cells/mL concentrations, respectively for 24 h.
The cells were then stained with MTT solution and incubated for additional 4 h. At the end of this period, supernatants were removed and 100 μL DMSO was added to each well to solubilize the formazan crystals. The absorbance of the solution was determined on the Infinitive M1000 (Tecan, Mannedorf, Switzerland) plate reader at a wavelength of 550 nm with background subtraction at 630 nm.

The next series deals with HL-60. Put plainly: MTT cell viability assay, HL-60. In kind it is cell-based. The conditions noted are these: Homo sapiens, 24 h exposure. Here is the method: as §1, §2
The test system of series [5] is A549 human lung carcinoma. The series is described as follows: MTT cell viability assay, A549. Particulars: for IC50: Homo sapiens, A549, MTT, 24 h exposure. Type of series: cell-based. The method, then:
as §1, §2

Series [6] concerns the target T1, ABL1 kinase. Particulars: a value in the previous paper; cited from earlier work.

T1 sequence (P00519 whole entry): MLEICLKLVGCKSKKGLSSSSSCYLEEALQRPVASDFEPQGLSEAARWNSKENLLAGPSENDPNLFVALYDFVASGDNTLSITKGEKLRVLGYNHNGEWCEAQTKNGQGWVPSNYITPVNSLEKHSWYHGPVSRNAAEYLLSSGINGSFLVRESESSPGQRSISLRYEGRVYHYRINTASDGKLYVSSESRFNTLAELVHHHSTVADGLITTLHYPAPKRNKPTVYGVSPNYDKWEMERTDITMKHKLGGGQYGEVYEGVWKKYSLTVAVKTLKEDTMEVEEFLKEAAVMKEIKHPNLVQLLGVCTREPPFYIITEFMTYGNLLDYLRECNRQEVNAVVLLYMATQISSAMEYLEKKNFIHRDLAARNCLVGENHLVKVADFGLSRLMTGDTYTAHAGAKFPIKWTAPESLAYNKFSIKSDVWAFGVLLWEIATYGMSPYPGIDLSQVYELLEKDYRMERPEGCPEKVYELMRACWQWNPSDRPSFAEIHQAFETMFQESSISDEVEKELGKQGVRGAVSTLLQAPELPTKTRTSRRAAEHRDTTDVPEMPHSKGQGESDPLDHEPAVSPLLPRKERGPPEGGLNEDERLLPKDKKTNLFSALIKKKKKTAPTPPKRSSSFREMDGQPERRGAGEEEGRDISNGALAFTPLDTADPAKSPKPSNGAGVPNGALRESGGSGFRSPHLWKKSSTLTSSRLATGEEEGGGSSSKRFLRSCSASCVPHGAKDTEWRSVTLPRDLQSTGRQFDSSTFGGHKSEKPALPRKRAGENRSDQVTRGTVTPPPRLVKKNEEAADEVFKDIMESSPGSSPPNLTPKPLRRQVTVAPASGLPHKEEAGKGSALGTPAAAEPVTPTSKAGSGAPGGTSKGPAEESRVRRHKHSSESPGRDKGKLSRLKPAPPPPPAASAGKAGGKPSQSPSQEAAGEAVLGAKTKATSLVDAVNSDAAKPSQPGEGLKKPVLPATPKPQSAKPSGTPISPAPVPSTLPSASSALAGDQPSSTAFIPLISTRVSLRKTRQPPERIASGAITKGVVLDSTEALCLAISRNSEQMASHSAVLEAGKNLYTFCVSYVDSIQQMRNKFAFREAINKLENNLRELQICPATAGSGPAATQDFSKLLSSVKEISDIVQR

`CC1(C)CC[C@]2(C(=O)OCc3ccc(C#N)cc3)CC[C@]3(C)C(=CC[C@@H]4[C@@]5(C)CC[C@H](O)[C@@](C)(C=O)[C@@H]5CC[C@]43C)[C@@H]2C1` [GP5, Gypsogenin 4-cyanobenzyl ester] returned a melting point of 175 to 177 °C. Moreover, in the series with MCF7 human breast cancer, the IC50 amounted to 15.3 ± 2.11 µM. Besides, in the series on K562 cells, the “apoptotic effects on CML cell line” value turned out to be 9.5% and the late apoptotic/necrotic effects is on record as 5.1%. The same molecule returned an IC50 in the series on MT-2 of 7.26 ± 0.97 µM. The molecule also displayed an IC50 with Jurkat of 4.83 ± 0.35 µM. Further, in series [1], the “ERK phosphorylation (phosphorylated ERK1/2)” value (“ERK phosphorylation” for short) was “inhibitory effect of ERK phosphorylation” and the “amount of ERK1/2” value is “moderately decreased”. In series [2], this molecule registered an IC50 of 5.66 ± 0.32 µM. Inhibition at ABL1 kinase [3] was half-maximal at 6.16 ± 0.63 µM (IC50). For the same molecule, in series [4], the IC50 was found to be 25.6 ± 2.18 µM. In addition, the IC50 in the series with CML cell line K562 (Homo sapiens, K562, 24 h) came to 3.19 ± 1.21 µM. Further, in the series with CML cell line K562, the “SI (selectivity index)” value is reported as 8.03. Besides, the IC50 in the series with HL-60 is 4.36 ± 0.28 µM. The molecule further returned an IC50 in series [5] of 24.6 ± 1.94 µM.

Consider `CC1(C)CC[C@]2(C(=O)OCc3cc(C(F)(F)F)cc(C(F)(F)F)c3)CC[C@]3(C)C(=CC[C@@H]4[C@@]5(C)CC[C@H](O)[C@@](C)(C=O)[C@@H]5CC[C@]43C)[C@@H]2C1` [GP2, Gypsogenin 3,5-bis(trifluromethyl)benzyl ester], for which the melting point lay within 85 to 87 °C. The same molecule registered an IC50 in the series on MCF7 human breast cancer of 51.6 ± 4.75 µM. Besides, in the series on K562 cells, the “apoptotic effects on CML cell line” value is 24% and the late apoptotic/necrotic effects came out at 4.5%. The IC50 in the series with MT-2 came to 36.8 ± 4.21 µM. The same molecule displayed an IC50 in the series with Jurkat of 9.14 ± 0.71 µM. Also, in [1], the “ERK phosphorylation” value is given as “inhibitory effect of ERK phosphorylation” and the “amount of ERK1/2” value is “moderately decreased”. For the same molecule, the IC50 in series [2] was 35.3 ± 2.84 µM. In addition, the IC50 against ABL1 kinase [3] came out at 7.19 ± 0.65 µM. This molecule yielded a 50% inhibitory concentration (IC50) in [4] of 52.8 ± 3.82 µM. Besides, the IC50 with CML cell line K562 (Homo sapiens, K562, 24 h) amounted to 4.78 ± 1.25 µM. The “SI (selectivity index)” value with CML cell line K562 stood at 11.04. The molecule also registered an IC50 in the series with HL-60 of 5.27 ± 0.42 µM. In addition, in [5], the “activity against A549 cell line at 100 µM” value is “inactive” and the IC50 was above 100 µM.

Take `CC1(C)CC[C@]2(C(=O)OCc3ccccc3)CC[C@]3(C)C(=CC[C@@H]4[C@@]5(C)CC[C@H](O)[C@@](C)(C=O)[C@@H]5CC[C@]43C)[C@@H]2C1` [Compound 1c, benzyl ester of gypsogenin]: the IC50 in series [4] is above 100 µM; in the series on CML cell line K562 (Homo sapiens, K562, 24 h) it was 8.94 ± 1.73 µM; at ABL1 kinase [6], 8.71 ± 1.14 µM. In addition, in the series with CML cell line K562, the “SI (selectivity index)” value is on record as above 11.19.

In the case of `CC1(C)CC[C@]2(C(=O)OCc3ccccc3)CC[C@]3(C)C(=CC[C@@H]4[C@@]5(C)CC[C@H](O)C(C)(C)[C@@H]5CC[C@]43C)[C@@H]2C1` [PT5, Oleanolic acid benzyl ester], the IC50 was 53.9 ± 6.46 µM in the series on MCF7 human breast cancer; 34.7 ± 3.85 µM in the series with MT-2; 13.8 ± 1.58 µM in the series with Jurkat; 67 ± 4.19 µM in series [2]; 1.44 ± 0.12 µM on ABL1 kinase [3]; 50.2 ± 4.58 µM in series [4]. For the same molecule, the IC50 in the series with CML cell line K562 (Homo sapiens, K562, 24 h) was around 5.5 µM; in the series on CML cell line K562 it was 5.46 ± 1.51 µM; in the series on HL-60, 15.7 ± 1.36 µM; in series [5], above 100 µM. Besides, the “apoptotic effects on CML cell line” value in the series on K562 cells is listed as 14%. Moreover, the late apoptotic/necrotic effects in the series with K562 cells stood at 11%. In addition, the “ERK phosphorylation” value in series [1] is reported as “inhibitory effect of ERK phosphorylation”. The “amount of ERK1/2” value in [1] is “moderately decreased”. Also, the “ABL kinase IC50 potency relative to 1c” value at ABL1 kinase [3] (fold vs 1c) is “six times stronger; also recorded: about sixfold”. Moreover, the “SI (selectivity index)” value with CML cell line K562 stood at 9.19. Further, the “activity against A549 cell line at 100 µM” value in [5] was “inactive”.
